Where two headings read alike, the source gives them in different places.
Experiments:
[1] = tested on: AP-1060 (ETV6-NTRK3); assay: Cell viability assay; conditions: read-out: IC50 in cell proliferation assay
[2] = tested on: 134 cancer cell lines; assay: Cell viability assay (ATPlite, 72 hours), IC50 on cancer cell line panel

Measured: IC50

CC#CC(=O)N1CCC[C@H]1c1nc(-c2ccc(C(=O)Nc3ccccn3)cc2)c2c(N)nccn12 [acalabrutinib]
29.6 µM: [2]; Homo sapiens, Jurkat E6.1, read-out: IC50 in cell proliferation assay
0.594 µM: [2]; Homo sapiens, BT-474, read-out: IC50 in cell proliferation assay
31.3 µM: [2]; Homo sapiens, KATO III, read-out: IC50 in cell proliferation assay
0.685 µM: [2]; Homo sapiens, AU565, read-out: IC50 in cell proliferation assay
28.5 µM: [2]; Homo sapiens, FaDu, read-out: IC50 in cell proliferation assay
9.38 µM: [2]; Homo sapiens, MOLM-13, read-out: IC50 in cell proliferation assay
9.87 µM: [2]; Homo sapiens, SK-N-SH, read-out: IC50 in cell proliferation assay
0.021 µM: [2]; Homo sapiens, Rec1, read-out: IC50 in cell proliferation assay
9.68 µM: [2]; Homo sapiens, Hs746T, read-out: IC50 in cell proliferation assay
25.8 µM: [2]; Homo sapiens, EOL1, read-out: IC50 in cell proliferation assay
9.83 µM: [2]; Homo sapiens, DoTc2-4510, read-out: IC50 in cell proliferation assay
0.003 µM: [2]; Homo sapiens, SU-DHL-6, read-out: IC50 in cell proliferation assay
> 31.6 µM: [1] | [2]; HEC-6, read-out: IC50 in cell proliferation assay | [2]; Homo sapiens, 769-P, read-out: IC50 in cell proliferation assay | [2]; Homo sapiens, 786-0, read-out: IC50 in cell proliferation assay | [2]; Homo sapiens, A 172, read-out: IC50 in cell proliferation assay | [2]; Homo sapiens, A204, read-out: IC50 in cell proliferation assay | [2]; Homo sapiens, A498, read-out: IC50 in cell proliferation assay | [2]; Homo sapiens, A549, read-out: IC50 in cell proliferation assay | [2]; Homo sapiens, A704, read-out: IC50 in cell proliferation assay | [2]; Homo sapiens, A-375, read-out: IC50 in cell proliferation assay | [2]; Homo sapiens, A-427, read-out: IC50 in cell proliferation assay | [2]; Homo sapiens, AN3-CA, read-out: IC50 in cell proliferation assay | [2]; Homo sapiens, ASPC1, read-out: IC50 in cell proliferation assay | [2]; Homo sapiens, BT-20, read-out: IC50 in cell proliferation assay | [2]; Homo sapiens, BT-549, read-out: IC50 in cell proliferation assay | [2]; Homo sapiens, BXPC-3, read-out: IC50 in cell proliferation assay | [2]; Homo sapiens, CAL-27, read-out: IC50 in cell proliferation assay | [2]; Homo sapiens, CCF-STTG1, read-out: IC50 in cell proliferation assay | [2]; Homo sapiens, CCRF-CEM, read-out: IC50 in cell proliferation assay | [2]; Homo sapiens, COLO 205, read-out: IC50 in cell proliferation assay | [2]; Homo sapiens, COLO-829, read-out: IC50 in cell proliferation assay | [2]; Homo sapiens, DLD-1, read-out: IC50 in cell proliferation assay | [2]; Homo sapiens, DU-145, read-out: IC50 in cell proliferation assay | [2]; Homo sapiens, DU-4475, read-out: IC50 in cell proliferation assay | [2]; Homo sapiens, Daoy, read-out: IC50 in cell proliferation assay | [2]; Homo sapiens, G-361, read-out: IC50 in cell proliferation assay | [2]; Homo sapiens, HCC827, read-out: IC50 in cell proliferation assay | [2]; Homo sapiens, HCT-15, read-out: IC50 in cell proliferation assay | [2]; Homo sapiens, HCT-116, read-out: IC50 in cell proliferation assay | [2]; Homo sapiens, HEC-1, read-out: IC50 in cell proliferation assay | [2]; Homo sapiens, HEC-1B, read-out: IC50 in cell proliferation assay | [2]; Homo sapiens, HL-60, read-out: IC50 in cell proliferation assay | [2]; Homo sapiens, HT, read-out: IC50 in cell proliferation assay | [2]; Homo sapiens, HT-1080, read-out: IC50 in cell proliferation assay | [2]; Homo sapiens, Hs-578T, read-out: IC50 in cell proliferation assay | [2]; Homo sapiens, HuTu80, read-out: IC50 in cell proliferation assay | [2]; Homo sapiens, J82, read-out: IC50 in cell proliferation assay | [2]; Homo sapiens, K562, read-out: IC50 in cell proliferation assay | [2]; Homo sapiens, KG-1, read-out: IC50 in cell proliferation assay | [2]; Homo sapiens, KLE, read-out: IC50 in cell proliferation assay | [2]; Homo sapiens, KMS-11, read-out: IC50 in cell proliferation assay | [2]; Homo sapiens, KU812, read-out: IC50 in cell proliferation assay | [2]; Homo sapiens, Kasumi 1, read-out: IC50 in cell proliferation assay | [2]; Homo sapiens, LNCaP-Clone-FGC, read-out: IC50 in cell proliferation assay | [2]; Homo sapiens, LS174T, read-out: IC50 in cell proliferation assay | [2]; Homo sapiens, LS-411N, read-out: IC50 in cell proliferation assay | [2]; Homo sapiens, LoVo, read-out: IC50 in cell proliferation assay | [2]; Homo sapiens, MCF7, read-out: IC50 in cell proliferation assay | [2]; Homo sapiens, MDA-MB-231, read-out: IC50 in cell proliferation assay | [2]; Homo sapiens, MDA-MB-453, read-out: IC50 in cell proliferation assay | [2]; Homo sapiens, MDA-MB-468, read-out: IC50 in cell proliferation assay | [2]; Homo sapiens, MG-63, read-out: IC50 in cell proliferation assay | [2]; Homo sapiens, MIA PaCa-2, read-out: IC50 in cell proliferation assay | [2]; Homo sapiens, MKN-45, read-out: IC50 in cell proliferation assay | [2]; Homo sapiens, MOLT-4, read-out: IC50 in cell proliferation assay | [2]; Homo sapiens, MV4-11, read-out: IC50 in cell proliferation assay | [2]; Homo sapiens, MeWo, read-out: IC50 in cell proliferation assay | [2]; Homo sapiens, NCCIT, read-out: IC50 in cell proliferation assay | [2]; Homo sapiens, NCI-H82, read-out: IC50 in cell proliferation assay | [2]; Homo sapiens, NCI-H460, read-out: IC50 in cell proliferation assay | [2]; Homo sapiens, NCI-H716, read-out: IC50 in cell proliferation assay | [2]; Homo sapiens, NCI-H1650, read-out: IC50 in cell proliferation assay | [2]; Homo sapiens, NCI-H1975, read-out: IC50 in cell proliferation assay | [2]; Homo sapiens, NCI-H2228, read-out: IC50 in cell proliferation assay | [2]; Homo sapiens, OVCAR-3, read-out: IC50 in cell proliferation assay | [2]; Homo sapiens, PFSK-1, read-out: IC50 in cell proliferation assay | [2]; Homo sapiens, RL95-2, read-out: IC50 in cell proliferation assay | [2]; Homo sapiens, RPMI-7951, read-out: IC50 in cell proliferation assay | [2]; Homo sapiens, RS4-11, read-out: IC50 in cell proliferation assay | [2]; Homo sapiens, SHP77, read-out: IC50 in cell proliferation assay | [2]; Homo sapiens, SK-N-AS, read-out: IC50 in cell proliferation assay | [2]; Homo sapiens, SK-N-FI, read-out: IC50 in cell proliferation assay | [2]; Homo sapiens, SK-N-MC, read-out: IC50 in cell proliferation assay | [2]; Homo sapiens, SNU-5, read-out: IC50 in cell proliferation assay | [2]; Homo sapiens, SNU-16, read-out: IC50 in cell proliferation assay | [2]; Homo sapiens, SNU-C2B, read-out: IC50 in cell proliferation assay | [2]; Homo sapiens, SU-DHL-1, read-out: IC50 in cell proliferation assay | [2]; Homo sapiens, SUP-T1, read-out: IC50 in cell proliferation assay | [2]; Homo sapiens, SW480, read-out: IC50 in cell proliferation assay | [2]; Homo sapiens, SW626, read-out: IC50 in cell proliferation assay | [2]; Homo sapiens, SW780, read-out: IC50 in cell proliferation assay | [2]; Homo sapiens, SW837, read-out: IC50 in cell proliferation assay | [2]; Homo sapiens, SW872, read-out: IC50 in cell proliferation assay | [2]; Homo sapiens, SW900, read-out: IC50 in cell proliferation assay | [2]; Homo sapiens, SW948, read-out: IC50 in cell proliferation assay | [2]; Homo sapiens, SW982, read-out: IC50 in cell proliferation assay | [2]; Homo sapiens, SW-620, read-out: IC50 in cell proliferation assay | [2]; Homo sapiens, T98G, read-out: IC50 in cell proliferation assay | [2]; Homo sapiens, TCC-SUP, read-out: IC50 in cell proliferation assay | [2]; Homo sapiens, THP-1, read-out: IC50 in cell proliferation assay | [2]; Homo sapiens, U2OS, read-out: IC50 in cell proliferation assay | [2]; Homo sapiens, U-87 MG, read-out: IC50 in cell proliferation assay | [2]; Homo sapiens, U-118-MG, read-out: IC50 in cell proliferation assay | [2]; Homo sapiens, UMUC3, read-out: IC50 in cell proliferation assay | [2]; Hs766T, read-out: IC50 in cell proliferation assay | [2]; L-82, read-out: IC50 in cell proliferation assay | [2]; Rh30, read-out: IC50 in cell proliferation assay
11 µM: [2]; Homo sapiens, NCI-H661, read-out: IC50 in cell proliferation assay
17.4 µM: [2]; Homo sapiens, HCC4006, read-out: IC50 in cell proliferation assay
0.409 µM: [2]; Homo sapiens, SK-BR-3, read-out: IC50 in cell proliferation assay
12.6 µM: [2]; Homo sapiens, ACHN, read-out: IC50 in cell proliferation assay
4.43 µM: [2]; Homo sapiens, SW48, read-out: IC50 in cell proliferation assay
19.6 µM: [2]; Homo sapiens, LC-2-ad, read-out: IC50 in cell proliferation assay
2.01 µM: [2]; Homo sapiens, C-33-A, read-out: IC50 in cell proliferation assay
